Test results published in the supplement of paper PMC11061612.

Columns and labels:
Assay in all cases: combination Emax (second highest fraction inhibited in the dose matrix, 72 h); higher = more inhibition; extreme values may be limits of the assay
[1] = tested on: SUP-B15 (B-Lymphoblastic Leukemia)
In short: (§1)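 Cell lines grown in DMEM/F12 or RPMI with 10% FBS were plated in 1536-well plates and held 24 hours at 37°C, 5% CO2 before 72 hours of exposure to two-drug dose matrices, with DMSO typically at 0.2%. CellTiter-Glo 2.0 luminescence gave viability, which was converted to inhibition. Vehicle wells were set to 0 and blank wells to 1. Combination Emax is the second-highest inhibition in the matrix, and Bliss excess is the observed combination effect minus the expected EA + EB − EA·EB, where EA and EB are the single-agent effects.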

[2] = tested on: ESO51 (Esophageal Adenocarcinoma)
In short: as §1

[3] = tested on: KU812 (Chronic Myelogenous Leukemia)
In short: as §1

[4] = tested on: SNU-398 (Hepatocellular Carcinoma)
In short: as §1

[5] = tested on: HCC1187 (Breast Carcinoma)
In short: as §1

[6] = tested on: CHSA8926 (Chondrosarcoma)
In short: as §1

[7] = tested on: NCI-H520 (Squamous Cell Lung Carcinoma)
In short: as §1

[8] = tested on: IM-95 (Gastric Carcinoma)
In short: as §1

[9] = tested on: RPMI-8226 (Plasma Cell Myeloma)
In short: as §1

[10] = tested on: KY821 (Acute Myeloid Leukemia)
In short: as §1

[11] = tested on: JHH-4 (Hepatocellular Carcinoma)
In short: as §1

[12] = tested on: KYSE-270 (Esophageal Squamous Cell Carcinoma)
In short: as §1

SJSA-1 (Osteosarcoma) = tested on: SJSA-1 (Osteosarcoma)
In short: as §1

[13] = tested on: KP-3 (Pancreatic Carcinoma)
In short: as §1

[14] = tested on: SK-GT-4 (Esophageal Adenocarcinoma)
In short: as §1

[15] = tested on: H9 (T-Cell Non-Hodgkin's Lymphoma)
In short: as §1

[16] = tested on: VMRC-RCZ (Kidney Carcinoma)
In short: as §1

[17] = tested on: T-T (Esophageal Squamous Cell Carcinoma)
In short: as §1

[18] = tested on: HCC1419 (Breast Carcinoma)
In short: as §1

RD (Rhabdomyosarcoma) = tested on: RD (Rhabdomyosarcoma)
In short: as §1

SMILES | combination Emax [1] | combination Emax [2] | combination Emax [3] | combination Emax [4] | combination Emax [5] | combination Emax [6] | combination Emax [7] | combination Emax [8] | combination Emax [9] | combination Emax [10] | combination Emax [11] | combination Emax [12] | combination Emax (SJSA-1 (Osteosarcoma)) | combination Emax [13] | combination Emax [14] | combination Emax [15] | combination Emax [16] | combination Emax [17] | combination Emax [18] | combination Emax (RD (Rhabdomyosarcoma))
CN(CCO)CC[C@H](CSc1ccccc1)Nc1ccc(S(=O)(=O)NC(=O)c2ccc(N3CCC([C@@H](O)c4ccccc4-c4ccc(Cl)cc4)CC3)cc2)cc1S(=O)(=O)C(F)(F)F [AZD4320] + C=CCn1c(=O)c2cnc(Nc3ccc(N4CCN(C)CC4)cc3)nc2n1-c1cccc(C(C)(C)O)n1 [AZD1775] (first compound max 1 µM, partner max 1 µM) | 1 | 0.775 | 0.956 | 0.739 | 0.549 | 0.852 | 0.76 | 0.791 | 0.997 | 1 | 0.688 | 0.632 | 0.392 | 0.314 | 0.349 | 1 | 0.39 | 0.523 | 0.0041 | 0.92
CN(CCO)CC[C@H](CSc1ccccc1)Nc1ccc(S(=O)(=O)NC(=O)c2ccc(N3CCC([C@@H](O)c4ccccc4-c4ccc(Cl)cc4)CC3)cc2)cc1S(=O)(=O)C(F)(F)F [AZD4320] + CCN(CCO)CCCOc1ccc2c(Nc3cc(CC(=O)Nc4cccc(F)c4)[nH]n3)ncnc2c1 [AZD2811] (first compound max 1 µM, 7x7, partner max 1 µM) | 1 | 0.233 | 0.885 | 0.593 | 0.914 | 0.643 | 0.689 | 0.859 | 0.986 | 1 | 0.17 | 0.113 | 0.335 | 0.0781 | 0.238 | 0.978 | 0.149 | 0.282 | 0.0755 | 0.856
CN(CCO)CC[C@H](CSc1ccccc1)Nc1ccc(S(=O)(=O)NC(=O)c2ccc(N3CCC([C@@H](O)c4ccccc4-c4ccc(Cl)cc4)CC3)cc2)cc1S(=O)(=O)C(F)(F)F [AZD4320] + CN(C)CCCOc1ccc(-c2ccc3ncc4c(c3c2)n(C2CCOCC2)c(=O)n4C)cn1 [AZD0156] (first compound max 1 µM, 7x7, partner max 1 µM) | 1 | 0.193 | 0.751 | 0.191 | 0.154 | 0.46 | 0.474 | 0.69 | 0.949 | 1 | 0.293 | 0.0949 | 0.283 | 0.0528 | 0.188 | 0.996 | 0.13 | 0.158 | 0.245 | 0.632
CN(CCO)CC[C@H](CSc1ccccc1)Nc1ccc(S(=O)(=O)NC(=O)c2ccc(N3CCC([C@@H](O)c4ccccc4-c4ccc(Cl)cc4)CC3)cc2)cc1S(=O)(=O)C(F)(F)F [AZD4320] + C[C@@H]1COCCN1C2=NC(=NC(=C2)C3(CC3)[S@](=N)(=O)C)C4=C5C=CNC5=NC=C4 [AZD6738] (first compound max 1 µM, 7x7, partner max 10 µM) | 1 | 0.861 | 0.942 | 0.77 | 0.536 | 0.761 | 0.696 | 0.778 | 1 | 1 | 0.385 | 0.78 | 0.557 | 0.486 | 0.675 | 1 | 0.566 | 0.561 | 0.367 | 0.781
CN(CCO)CC[C@H](CSc1ccccc1)Nc1ccc(S(=O)(=O)NC(=O)c2ccc(N3CCC([C@@H](O)c4ccccc4-c4ccc(Cl)cc4)CC3)cc2)cc1S(=O)(=O)C(F)(F)F [AZD4320] + C[C@@H](Nc1cc(F)cc(F)c1)c1cc(C(=O)N(C)C)cc2c(=O)cc(N3CCOCC3)oc12 [AZD8186] (first compound max 1 µM, 7x7, partner max 3 µM) | 1 | 0.336 | 0.705 | 0.273 | 0.35 | 0.863 | 0.688 | 0.855 | 0.968 | 1 | 0.34 | 0.357 | 0.315 | 0.178 | 0.415 | 0.958 | 0.397 | 0.305 | 0.342 | 0.887
CN(CCO)CC[C@H](CSc1ccccc1)Nc1ccc(S(=O)(=O)NC(=O)c2ccc(N3CCC([C@@H](O)c4ccccc4-c4ccc(Cl)cc4)CC3)cc2)cc1S(=O)(=O)C(F)(F)F [AZD4320] + Cc1cc2ncnn2cc1Nc1ncc2c(n1)n(C1CCOCC1)c(=O)n2C [AZD7648] (first compound max 1 µM, 7x7, partner max 10 µM) | 1 | 0.149 | 0.872 | 0.261 | 0.114 | 0.688 | 0.541 | 0.6 | 0.965 | 1 | 0.233 | 0.0273 | 0.283 | 0.0376 | 0.321 | 0.99 | 0.0798 | 0.106 | 0.278 | 0.61
